# According to patent US20150018384A1, “TREATMENT FOR HIGH CHOLESTEROL” (FibroGen, Inc., priority 2012, published 2015):
# Columns and labels:
# [1] = tested on: Cholesterol Biosynthesis Genes in the Mouse Liver; assay: Microarray expression of cholesterol biosynthesis genes in mouse liver; type: in vivo; conditions: 10 mg/kg oral
# Description: (§1) A number of PHI compounds were evaluated for their effect on the expression of cholesterol biosynthesis genes in mouse liver. […] Liver tissue was harvested and stored in RNALater (Life Technologies). Total RNA was isolated with Trizol (Life Technologies) and purified with RNEasy96 (Qiagen) according to the manufacturers' protocols. RNA concentration was measured by NanoDrop (Thermo), and quality was assessed by Bioanalyzer (Agilent).
# (§2) Biotinylated microarray probe was prepared using the 3′IVT Express kit (Affymetrix) and hybridized to mouse 430A 2.0 arrays as recommended in the manufacturer's protocol. Arrays were stained, washed, and scanned using Affymetrix equipment and software. Three arrays were run for each treatment and time point, each representing the liver sample from one individual animal.
# Animals were sacrificed 4 h or 8 h later. Each compound was tested in a separate animal study with separate controls. Liver tissue was harvested and stored in RNALater (Life Technologies). Total RNA was isolated with Trizol (Life Technologies) and purified with RNEasy96 (Qiagen) according to the manufacturers' protocols. RNA concentration was measured by NanoDrop (Thermo), and quality was assessed by Bioanalyzer (Agilent).
# (§3) For microarray analysis, RNA from animals in each treatment group was pooled in pairs (n=3 pairs for 4 h vehicle, n=2 pairs for all other treatment groups, for a total of 13 arrays per compound study). This approach was used to improve the signal-to-noise ratio on microarrays. Biotinylated probe was prepared using the One-Cycle cDNA synthesis kit (Affymetrix) and hybridized to mouse 430A 2.0 arrays as recommended in the manufacturer's protocol. Arrays were stained, washed, and scanned using Affymetrix equipment and software.
# (§4) Array quality was assessed with GeneChip Operating System and/or Command Console software (Affymetrix). CEL files were uploaded to GeneSpring 7.3.1 (Agilent) using GC-RMA baseline correction. Principal Components Analysis was used to identify and reject outlier arrays. Data are reported as fold-change compared to timepoint-matched vehicle controls from the same study. Values less than 1.0 indicate a reduction of RNA in the treated animal liver tissue.
# [2] = tested on: genes involved in cholesterol biosynthesis in DIO mice liver; assay: Microarray expression of cholesterol biosynthesis genes in liver of DIO mice; type: in vivo, mouse; conditions: 60 mg/kg three times a week, 4 weeks of dosing, relative to vehicle treated mice
# Description: as §1, §2, §3, §4
# Liver tissue was collected as described in Example 6 from DIO mice at the end of the study (4 weeks of dosing) described in Example 12. RNA isolation and microarray analysis were carried out as described in Example 6. The expression of 16 genes involved in cholesterol biosynthesis in mice treated with Compound B, Compound E, or Compound D, relative to that in the vehicle treated mice, is shown in Table 7.
# [3] = tested on: ApoE deficient mice; assay: High cholesterol mouse model, ApoE deficient mice, 2 weeks; type: in vivo; conditions: Compound 60 mg/kg three times a week for two weeks, n=10/group, FIG. 22
# Excerpt: Ten-week-old male apoE knockout mice (Jackson Laboratories, Bar Harbor, Me.) were fed a normal chow diet (0.02% cholesterol, 13.5% fat by weight; LabDiet). […] After 2 weeks of acclimatization, whole blood was collected for baseline measurement before administration of test reagents. […] The animals were sacrificed at end of study.
# ApoE deficient mice as described in Example 10 were used to test the effect of various compounds on cholesterol levels. […] A statin compound (rosuvastatin) was also tested. Blood samples were collected at the end of the study and total cholesterol blood levels were tested. A group of 10 mice was sacrificed at the beginning of the study for a baseline total cholesterol measurement. […] Typically statins show mixed results in this model and are not very effective to reduce cholesterol in mice (Bea et al. 2003 Atherosclerosis 167:187-194).
smiles,measurement,setting,value
"COc1ccc(Cn2cc(Br)c3c(O)c(C(=O)NCC(=O)O)nc(C#N)c32)cc1 [Compound K, {[3-Bromo-7-cyano-4-hydroxy-1-(4-methoxy-benzyl)-1H-pyrrolo[2,3-c]pyridine-5-carbonyl]-amino}-acetic acid]",3-hydroxy-3-methylglutaryl-Coenzyme A reductase (Hmgcr) RNA expression,[1]; 4 h,0.40 fold-change
same,3-hydroxy-3-methylglutaryl-Coenzyme A synthase 1 (Hmgcs1) RNA expression,[1]; 4 h,0.74 fold-change
same,7-dehydrocholesterol reductase (Dhcr7) RNA expression,[1]; 4 h,1.13 fold-change
same,NAD(P) dependent steroid dehydrogenase-like (Nsdhl) RNA expression,[1]; 4 h,1.05 fold-change
same,acetyl-Coenzyme A acetyltransferase 2 (Acat2) RNA expression,[1]; 4 h,0.94 fold-change
same,"cytochrome P450, family 51 (Cyp51) RNA expression",[1]; 4 h,0.81 fold-change
same,farnesyl diphosphate farnesyl transferase 1 (Fdft1) RNA expression,[1]; 4 h,0.78 fold-change
same,farnesyl diphosphate synthetase (Fdps) RNA expression,[1]; 4 h,1.01 fold-change
same,isopentenyl-diphosphate delta isomerase (Idi1) RNA expression,[1]; 4 h,0.88 fold-change
same,lanosterol synthase (Lss) RNA expression,[1]; 4 h,0.88 fold-change
same,mevalonate (diphospho) decarboxylase (Mvd) RNA expression,[1]; 4 h,0.68 fold-change
same,mevalonate kinase (Mvk) RNA expression,[1]; 4 h,0.92 fold-change
same,phosphomevalonate kinase (Pmvk) RNA expression,[1]; 4 h,0.88 fold-change
same,squalene epoxidase (Sqle) RNA expression,[1]; 4 h,1.46 fold-change
same,sterol-C4-methyl oxidase-like (Sc4mol) RNA expression,[1]; 4 h,0.65 fold-change
same,"sterol-C5-desaturase (fungal ERG3, delta-5-desaturase) homolog (S. cerevisae) (Sc5d) RNA expression",[1]; 4 h,0.92 fold-change
same,3-hydroxy-3-methylglutaryl-Coenzyme A reductase (Hmgcr) RNA expression,[1]; 8 h,0.11 fold-change
same,3-hydroxy-3-methylglutaryl-Coenzyme A synthase 1 (Hmgcs1) RNA expression,[1]; 8 h,0.30 fold-change
same,7-dehydrocholesterol reductase (Dhcr7) RNA expression,[1]; 8 h,0.61 fold-change
same,NAD(P) dependent steroid dehydrogenase-like (Nsdhl) RNA expression,[1]; 8 h,0.56 fold-change
same,acetyl-Coenzyme A acetyltransferase 2 (Acat2) RNA expression,[1]; 8 h,0.63 fold-change
same,"cytochrome P450, family 51 (Cyp51) RNA expression",[1]; 8 h,0.32 fold-change
same,farnesyl diphosphate farnesyl transferase 1 (Fdft1) RNA expression,[1]; 8 h,0.39 fold-change
same,farnesyl diphosphate synthetase (Fdps) RNA expression,[1]; 8 h,0.37 fold-change
same,isopentenyl-diphosphate delta isomerase (Idi1) RNA expression,[1]; 8 h,0.34 fold-change
same,lanosterol synthase (Lss) RNA expression,[1]; 8 h,0.38 fold-change
same,mevalonate (diphospho) decarboxylase (Mvd) RNA expression,[1]; 8 h,0.20 fold-change
same,mevalonate kinase (Mvk) RNA expression,[1]; 8 h,0.49 fold-change
same,phosphomevalonate kinase (Pmvk) RNA expression,[1]; 8 h,0.96 fold-change
same,squalene epoxidase (Sqle) RNA expression,[1]; 8 h,0.39 fold-change
same,sterol-C4-methyl oxidase-like (Sc4mol) RNA expression,[1]; 8 h,0.21 fold-change
same,"sterol-C5-desaturase (fungal ERG3, delta-5-desaturase) homolog (S. cerevisae) (Sc5d) RNA expression",[1]; 8 h,0.24 fold-change
"N#Cc1nc(C(=O)NCC(=O)O)c(O)c2c(Oc3ccccc3)cccc12 [Compound E, [(1-Cyano-4-hydroxy-5-phenoxy-isoquinoline-3-carbonyl)-amino]-acetic acid]",3-hydroxy-3-methylglutaryl-Coenzyme A reductase (Hmgcr) expression,[2],0.36
same,3-hydroxy-3-methylglutaryl-Coenzyme A synthase 1 (Hmgcs1) expression,[2],0.33
same,7-dehydrocholesterol reductase (Dhcr7) expression,[2],0.52
same,NAD(P) dependent steroid dehydrogenase-like (Nsdhl) expression,[2],0.77
same,acetyl-Coenzyme A acetyltransferase 2 (Acat2) expression,[2],0.69
same,"cytochrome P450, family 51 (Cyp51) expression",[2],0.26
same,farnesyl diphosphate farnesyl transferase 1 (Fdft1) expression,[2],0.40
same,farnesyl diphosphate synthetase (Fdps) expression,[2],0.57
same,isopentenyl-diphosphate delta isomerase (Idi1) expression,[2],0.42
same,lanosterol synthase (Lss) expression,[2],0.45
same,mevalonate (diphospho) decarboxylase (Mvd) expression,[2],0.34
same,mevalonate kinase (Mvk) expression,[2],0.58
same,phosphomevalonate kinase (Pmvk) expression,[2],0.74
same,squalene epoxidase (Sqle) expression,[2],0.52
same,sterol-C4-methyl oxidase-like (Sc4mol) expression,[2],0.27
same,"sterol-C5-desaturase (fungal ERG3, delta-5-desaturase) homolog (S. cerevisae) (Sc5d) expression",[2],0.34
"O=C(O)CNC(=O)c1nc(Cl)c2ccccc2c1O [Compound B, [(1-Chloro-4-hydroxy-isoquinoline-3-carbonyl)-amino]-acetic acid]",total cholesterol levels at the end of the study compared to baseline,[3],trend towards lower total cholesterol
same,3-hydroxy-3-methylglutaryl-Coenzyme A reductase (Hmgcr) expression,[2],0.20
same,3-hydroxy-3-methylglutaryl-Coenzyme A synthase 1 (Hmgcs1) expression,[2],0.15
same,7-dehydrocholesterol reductase (Dhcr7) expression,[2],0.43
same,NAD(P) dependent steroid dehydrogenase-like (Nsdhl) expression,[2],0.34
same,acetyl-Coenzyme A acetyltransferase 2 (Acat2) expression,[2],0.43
same,"cytochrome P450, family 51 (Cyp51) expression",[2],0.18
same,farnesyl diphosphate farnesyl transferase 1 (Fdft1) expression,[2],0.30
same,farnesyl diphosphate synthetase (Fdps) expression,[2],0.26
same,isopentenyl-diphosphate delta isomerase (Idi1) expression,[2],0.23
same,lanosterol synthase (Lss) expression,[2],0.38
same,mevalonate (diphospho) decarboxylase (Mvd) expression,[2],0.20
same,mevalonate kinase (Mvk) expression,[2],0.54
same,phosphomevalonate kinase (Pmvk) expression,[2],0.48
same,squalene epoxidase (Sqle) expression,[2],0.21
same,sterol-C4-methyl oxidase-like (Sc4mol) expression,[2],0.13
same,"sterol-C5-desaturase (fungal ERG3, delta-5-desaturase) homolog (S. cerevisae) (Sc5d) expression",[2],0.30
